The values below come from patent US4490291A, “Nonapeptide amides” (Takeda Chemical Industries, Ltd., priority 1973, dated 1984).

The subject of the experiment is Sprague-Dawley rats (4-day cycling female). Briefly: Ovulation-inducing activity in rats, ED50 compared with LH-RH. The experiment is classed as in vivo. The settings on record: for Relative ovulation-inducing activity (ED50 compared with that of LH-RH itself): subcutaneous injection at 14:30 on the day of diestrous, ovulated ova in oviduct examined next morning, natural LH-RH control = 100%. On the procedure:
Ovulation-inducing activity is determined in Sprague-Dawley rats (4-day cycling female) in which the injection of the compound was made subcutaneously at 14:30 on the day of diestrous, and the ovulated ova in the ampilla of the oviduct were examined on the morning of the next day. The results (ED50) were compared with that (ED50) of LH-RH itself. The assay results on the object compounds are as follows.

Non-standard residues stand in square brackets, D forms with d. Residues, ends and D or L forms follow the SMILES beside them. pGlu = O=C1CC[C@@H](C(=O)O)N1

As to `CCNC(=O)[C@@H]1CCCN1C(=O)[C@H](CCCNC(=N)N)NC(=O)[C@@H](NC(=O)[C@@H](C)NC(=O)[C@H](Cc1ccccc1)NC(=O)[C@H](CO)NC(=O)[C@H](Cc1c[nH]c2ccccc12)NC(=O)[C@H](Cc1c[nH]cn1)NC(=O)[C@@H]1CCC(=O)N1)[C@@H](C)CC` [His Phe Ile ethyl, (Pyr)Glu--His--Trp--Ser--Phe--(D)--Ala--Ile--Arg--Pro--NHCH2 CH3] ([pGlu]HWSF[dA]IRP-NHEt), the “Relative ovulation-inducing activity (ED50 compared with that of LH-RH itself)” value (from here on “Relative ovulation-inducing activity”) is given as 3,200%.

Regarding `CCNC(=O)[C@@H]1CCCN1C(=O)[C@H](CCCNC(=N)N)NC(=O)[C@H](CC(C)C)NC(=O)[C@@H](C)NC(=O)[C@H](Cc1ccccc1)NC(=O)[C@H](CO)NC(=O)[C@H](Cc1c[nH]c2ccccc12)NC(=O)[C@H](Cc1c[nH]cn1)NC(=O)[C@@H]1CCC(=O)N1` [His Phe Leu ethyl, (Pyr)Glu--His--Trp--Ser--Phe--(D)--Ala--Leu--Arg--Pro--NH--CH2 --CH3] ([pGlu]HWSF[dA]LRP-NHEt), the “Relative ovulation-inducing activity” value was 5,810%. Moreover, the “ED50 value of ovulation inducing activity” value (product of process (III) compared with product of process (I) of Example 5(c)) is reported as “identical”. With `CCNC(=O)[C@@H]1CCCN1C(=O)[C@H](CCCNC(=N)N)NC(=O)[C@H](CC(C)C)NC(=O)[C@@H](C)NC(=O)[C@H](Cc1ccc(O)cc1)NC(=O)[C@H](CO)NC(=O)[C@H](Cc1c[nH]c2ccccc12)NC(=O)[C@H](Cc1c[nH]cn1)NC(=O)[C@@H]1CCC(=O)N1` [His Tyr Leu ethyl, (Pyr)Glu--His--Trp--Ser--Tyr--(D)--Ala--Leu--Arg--Pro--NH--CH2 --CH3], the “Relative ovulation-inducing activity” value was 6,100%. In the case of `CCCC[C@H](NC(=O)[C@@H](C)NC(=O)[C@H](Cc1ccc(O)cc1)NC(=O)[C@H](CO)NC(=O)[C@H](Cc1c[nH]c2ccccc12)NC(=O)[C@H](Cc1c[nH]cn1)NC(=O)[C@@H]1CCC(=O)N1)C(=O)N[C@@H](CCCNC(=N)N)C(=O)N1CCC[C@H]1C(=O)NCC` [His Tyr Nle ethyl, (Pyr)Glu--His--Trp--Ser--Tyr--(D)--Ala--Nle--Arg--Pro--NHCH2 CH3], the “Relative ovulation-inducing activity” value is on record as 4,800%. Still for that read-out and setting: the same measure for `CCNC(=O)[C@@H]1CCCN1C(=O)[C@H](CCCNC(=N)N)NC(=O)[C@H](CC(C)C)NC(=O)[C@@H](C)NC(=O)[C@H](Cc1ccc(O)cc1)NC(=O)[C@H](CO)NC(=O)[C@H](Cc1c[nH]c2ccccc12)NC(=O)[C@H](Cc1ccc(O)cc1)NC(=O)[C@@H]1CCC(=O)N1` [Tyr Tyr Leu ethyl, (Pyr)Glu--Tyr--Trp--Ser--Tyr--(D)--Ala--Leu--Arg--Pro--NHCH2 CH3] ([pGlu]YWSY[dA]LRP-NHEt): 2,010%. `CC(C)C[C@H](NC(=O)CNC(=O)[C@H](Cc1ccc(O)cc1)NC(=O)[C@H](CO)NC(=O)[C@H](Cc1c[nH]c2ccccc12)NC(=O)[C@H](Cc1c[nH]cn1)NC(=O)[C@@H]1CCC(=O)N1)C(=O)N[C@@H](CCCNC(=N)N)C(=O)N1CCC[C@H]1C(=O)NCC(N)=O` [natural LH--RH, (Pyr)Glu-His-Trp-Ser-Tyr-Gly-Leu-Arg-Pro-Gly-NH2, reference compound]: the “Relative ovulation-inducing activity” value was found to be 100%. Still for that read-out and setting: the same measure for “(Pyr)Glu--p--NH2 --Phe--Trp--Ser--Tyr--(D)--Ala--Leu--Arg--Pro--NH--CH2 --CH3 [p-NH2 --Phe Tyr Leu ethyl]”: 2,150%.
